Assay results from patent US20200368223A1, “METHODS FOR INHIBITING PHOSPHATE TRANSPORT” (Ardelyx, Inc., priority 2019, published 2020).
Entries after “also recorded” stand apart in the source; their conditions may differ.

How the values were obtained:
[1] = test system: uremic rat model of CKD featuring vascular calcification; test: Rat model of uremia-associated vascular calcification (5/6th nephrectomy, calcitriol, 0.9% P diet); format: in vivo
Description: Chronic kidney disease (CKD) has multiple pathogenic mechanisms, and advanced CKD is often characterized by disordered mineral metabolism (e.g., hyperphosphatemia, hypercalcemia) and vascular calcification.

[2] = test system: adenine-induced uremic rat model; test: Adenine-induced uremic rat model; format: in vivo
Procedure: The effects of Cpd 002(were tested in an adenine-induced uremic rat model. Rats were fed a diet including 0.75% adenine and 1.2% phosphorus during the nephritis induction phase. The basal diet during the treatment phase was normal chow including 0.3% adenine and 0.6% phosphorus for 2 weeks. The rats were pair-fed the first 5 days (groups 1 and 2 to group 3, 4 days apart), and fed ad libitum afterwards. The treatment groups were as follows: vehicle, n=10; Cpd 002, 2 mg/kg/day drug-in-chow, n=10; and Cpd 002, 5 mg/kg/day drug-in-chow, n=12. Weekly measurements were taken for serum markers and kidney function.

[3] = test system: dietary salt-induced, partial renal ablation model of CKD; test: Renal insufficiency with high salt feed in nephrectomized rats; format: in vivo, rat
Procedure: The effects of Cpd 002 were tested in a dietary salt-induced, partial renal ablation model of CKD.

[4] = test system: rats; test: Urinary excretion of phosphate and calcium in rats; format: in vivo, rat; conditions: 16 hours overnight urine
Procedure: The activity of compound 002 was tested for its effects on phosphorus and calcium levels in the urine of rats. Rats were dosed according to the schedule in Table E7.
The rats were kept for 16 hours overnight (in the dark, the typical feeding period) in individual metabolic cages, and urine was collected the following morning for analysis of phosphate and calcium levels. The study design is shown WO2014169094.

[5] = In vitro dissolution of CPD002 formulations; format: physicochemical; conditions: CPD002 formulations at high pH
[6] = haemodialysis patients; cited from earlier work
[7] = test system: Sprague Dawley (SD) rats; test: Combination treatment with tenapanor and sevelamer in rats (urinary and renal phosphorous and sodium, BLISS model)
Procedure: A total of 48, approximately 8-week-old male Sprague Dawley (SD) rats (Envigo, Livermore, Calif.), weighing approximately 250 g on arrival, were housed 2-per cage in micro-isolator cages for a 48-hr acclimation period prior to being assigned to study groups. Animals were housed in a temperature (65-75° F.) and humidity (35-55%) controlled facility utilizing a reversed 12-hour light/dark cycle (7 AM-7 PM dark cycle). […] Body weights were recorded at study initiation and daily for the remainder of the study. Animals were maintained in accordance with the Guide for the Care and Use of Laboratory Animals (National Research Council, 2011). The study was conducted under a protocol approved by the Institutional Animal Care and Use Committee.
Rats were randomly assigned to one of eight groups (n=6/group) provided with a diet containing varying amounts of sevelamer (0-3% w/w) and were dosed by oral gavage twice daily with vehicle (0.01% Tween80) or tenapanor (0.15 mg/kg) for 11-consecutive days according to the study assignments shown in the following table.
Rats dosed orally with vehicle and provided diet without sevelamer (Group 1) served as the control group. Treatment arms included groups treated with tenapanor alone (0.15 mg/kg, bid), sevelamer alone (0.75, 1,5 or 3% w/w in chow) and the combination of tenapanor (0.15 mg/kg, bid) with each dose level of sevelamer (0.75, 1,5 or 3% w/w in chow). Animals were dosed in their home cages while pair-housed for the first five treatment days. On treatment day 6, all animals were housed individually in metabolic cages for the remainder of the study and continued to be provided ad libitum access to diet containing 0-3% sevelamer w/w and dosed twice daily with vehicle or tenapanor. Following two days acclimation to the metabolic cages, 24-hour food intake, water intake and urinary volume were measured and recorded for the final four treatment days. Urinary sodium and phosphorous concentration was measured by ion chromatography (IC). 24-hour urinary sodium and phosphorous excretion were calculated by multiplying ion concentration by 24-hour urine volume. Urinary ion excretion was also normalized to daily dietary ion intake to account for daily fluctuations in food intake.
Dosing solutions containing tenapanor (Ardelyx, Fremont Calif.) at a concentration of 0.03 mg/mL were made fresh weekly by adding the appropriate weight of tenapanor to 0.1% Tween 80 vehicle. The dose volume was 5 mL/kg for all groups.
Animals were dosed twice daily (bid) orally (po), immediately prior to lights out (7 AM) and during the middle of dark cycle (2 PM) with a standard gavage needle (38 mm, 20 G). Animals were removed from the holding or metabolic cages for dosing and then immediately returned to the cage of origin.
Urine samples were analyzed for sodium and phosphorous content on an ion chromatography system (Thermo Fisher Scientific ICS-3000 or ICS-5000+) coupled with conductivity detectors.

[8] = Cpd 002 0.065 mg/g chow vs vehicle diet, listed as Cpd 002
[9] = endpoint day 27, Cpd 002 0.065 mg/g chow vs vehicle diet
[10] = endpoint, Cpd 002 0.065 mg/g chow vs vehicle diet
[11] = early time points, Cpd 002 2 or 5 mg/kg/day drug-in-chow
[12] = week three, at the highest dose
[13] = tenapanor 0.15 mg/kg po bid alone, four day collection period, relative to control group 1

In the case of CN1Cc2c(Cl)cc(Cl)cc2[C@H](c2cccc(S(=O)(=O)NCCOCCOCCNC(=O)NCCCCNC(=O)NCCOCCOCCNS(=O)(=O)c3cccc([C@@H]4CN(C)Cc5c(Cl)cc(Cl)cc54)c3)c2)C1 [Tenapanor, tenapanor], the “hypertrophy of the heart (endpoint heart weight)” value [1, 8] is reported as “lessened; also recorded: reduce”, the “hypertrophy of the kidney remnant (endpoint kidney remnant weight)” value [1, 8] is reported as “lessened; also recorded: reduce” and the “plasma FGF-23” value [1, 9] is reported as “reduced”. The plasma creatinine [1, 9] was “reduced”, the plasma phosphorus ([1]; endpoint day 27, Cpd 002 0.065 mg/g chow vs vehicle diet, listed as Cpd 002) was “reduced; also recorded: anti-hyperphosphatemic effects” and the “calcium in the stomach (soft tissue calcification)” value [1, 10] was “reduced”. The “phosphorus in the stomach (soft tissue calcification)” value [1, 10] was “reduced”, the plasma aldosterone levels [1, 10] was “increase” and the “vascular calcification as measured by aortic mineral content” value ([1]; endpoint, Cpd 002 0.065 mg/g chow vs vehicle diet, listed as Cpd 002) was “reduce”. For the same compound, the moribundity ([1]; treatment group vs vehicle) was “decreased”, the mortality outcome ([1]; treatment group vs vehicle) was “trend toward improved mortality outcome” and the serum creatinine [2, 11] was “reduced”. The serum phosphorus [2, 11] was “reduced”, the “heart remodeling (organ weight)” value ([2]; week three) was “trend towards lesser” and the “kidney remodeling (organ weight)” value ([2]; week three) was “trend towards lesser”. The heart calcification [2, 12] was “trend towards reduced”, the kidney calcification [2, 12] was “trend towards reduced” and the albuminuria [3] was “improved”. The blood pressure [3] was “improved”, the fluid overload [3] was “improved” and the heart hypertrophy [3] was “improved”. For the same compound, the kidney hypertrophy [3] was “improved”, the phosphorus urinary excretion [3] was “significantly reduced” and the “urine phosphorus mass relative to the vehicle-only control” value ([4]; Cpd 002 0.1-3.0 mg/kg) was “reduced”. For the same compound, the “urine phosphorus mass relative to 48 mg/kg Renvela” value ([4]; increasing dosages of Cpd 002) was “significantly reduced”, the “in vitro dissolution profile” value [5] was “slower and/or incomplete dissolution” and the serum phosphate levels [6] was “significantly lower”. The urinary sodium excretion ([7]; single agent, compared to vehicle control) was “significantly decreased”, the “24-hr urinary phosphorous excretion” value ([7]; single agent, compared to vehicle control, final four days of treatment) was “significantly decreased” and the “% Reduction Urinary Phosphorous Excretion When Dosed Alone” value [7, 13] was 33.2%. The “% Reduction Urinary Sodium Excretion When Dosed Alone” value [7, 13] was 82.1% and the urinary sodium excretion ([7]; tenapanor co-administered with all doses of sevelamer, compared to control) was “significantly reduced”.
